Several values for one entry are separate records, joined by “and”; a condition that tells them apart may be missing. Identical values can stand only once.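 Grown in 96-well plates, cells were treated for 48 hours with each compound at five concentrations. Insufficient inhibition: endpoint recorded as highest concentration tested. Abbreviation: GI50, concentration required for 50% inhibition of growth. Definition used: TGI = concentration required for complete inhibition of growth.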
Experiments:
Experiment in all cases: DTP human tumour cell line panel, 48 h
ACHN renal = system: ACHN renal
SR leukemia = system: SR leukemia
OVCAR-3 ovarian = system: OVCAR-3 ovarian
HCC-2998 colon = system: HCC-2998 colon
RPMI-8226 leukemia = system: RPMI-8226 leukemia
SF-268 CNS = system: SF-268 CNS
EKVX NSCLC = system: EKVX NSCLC
SK-MEL-5 melanoma = system: SK-MEL-5 melanoma
SK-OV-3 ovarian = system: SK-OV-3 ovarian
MCF7 breast = system: MCF7 breast

| SMILES | TGI (ACHN renal) | TGI (SR leukemia) | TGI (OVCAR-3 ovarian) | TGI (HCC-2998 colon) | TGI (RPMI-8226 leukemia) | TGI (SF-268 CNS) | TGI (EKVX NSCLC) | TGI (SK-MEL-5 melanoma) | TGI (SK-OV-3 ovarian) | TGI (MCF7 breast) | GI50 (OVCAR-3 ovarian) | GI50 (HCC-2998 colon) | GI50 (SK-OV-3 ovarian) | GI50 (ACHN renal) | GI50 (SR leukemia) | GI50 (SF-268 CNS) | GI50 (EKVX NSCLC) | GI50 (SK-MEL-5 melanoma) |
| --- | --- | --- | --- | --- | --- | --- | --- | --- | --- | --- | --- | --- | --- | --- | --- | --- | --- | --- |
| Cn1nc2n(c1=O)CCCN2 | > 100 µM | > 100 µM | > 100 µM | > 100 µM | > 100 µM | > 100 µM | > 100 µM | > 100 µM |  |  |  |  |  |  |  |  |  |  |
| CC(=O)/C(=C/n1c(=S)[nH]c2ccccc21)C(=O)Nc1ccccc1C | > 100 µM |  | > 100 µM | > 100 µM |  | > 100 µM | > 100 µM | > 100 µM | > 100 µM |  |  |  |  |  |  |  |  |  |
| OCC1OC(n2cnc3cncnc32)C(O)C1O (stereo not given) |  |  | 4.94 µM | 2.84 µM | 7.95 µM | 2.98 µM | 4.18 µM | 3.25 µM | 5.16 µM | 2.15 µM |  |  |  |  |  |  |  |  |
| Cc1ccc(C(C)(C)C[P+](C)(c2ccccc2)c2ccccc2)cc1 |  |  | 22.2 µM | > 70.3 µM | 6.7 µM | > 100 µM | > 100 µM | 12.7 µM | 64.2 µM | > 81.2 µM |  |  |  |  |  |  |  |  |
| CCOC(=O)c1c(N2CCCC2)ncn(-c2ccccc2)c1=S | > 100 µM | > 100 µM | > 100 µM | > 100 µM | > 100 µM | > 100 µM | > 100 µM | > 100 µM | > 100 µM |  |  |  |  |  |  |  |  |  |
| [Cl][Pt+2][Cl].[NH-]C1CCCCC1[NH-] (stereo not given) |  |  | > 59.4 µM and > 47.2 µM and 20.8 µM | > 100 µM and 24.2 µM | > 50.5 µM | 56.7 µM and > 100 µM and > 58.3 µM | > 100 µM and 55.2 µM and 31.1 µM | 33 µM and 19.5 µM and 4.39 µM | > 100 µM | > 37 µM and > 100 µM and 10.1 µM | 9.42 µM and 6.62 µM and 2.98 µM | 42.6 µM and 17.2 µM and 4.67 µM | 18.5 µM and > 80.9 µM and 25.1 µM |  |  |  |  |  |
| C/C(=C\c1ccccn1)c1ccccn1 | > 100 µM |  | > 100 µM | > 100 µM | > 100 µM | > 100 µM | > 100 µM | > 100 µM | > 100 µM | > 100 µM |  |  |  |  |  |  |  |  |
| Cc1cc(O)c(C(C)C)cc1SC#N | 30.1 µM |  | 28.8 µM | 32.9 µM | 33.7 µM | 49.3 µM |  | 42.7 µM | 37.6 µM | 31.6 µM |  |  |  |  |  |  |  |  |
| C/C=C\C(CC(=O)NCCc1cn(C(=O)OCc2ccccc2)c2ccccc12)CC(=O)OC (stereo not given) | > 100 µM |  | > 100 µM | > 100 µM | > 100 µM | > 100 µM | > 100 µM | > 100 µM | > 100 µM | > 100 µM |  |  |  |  |  |  |  |  |
| N=c1oc2ccc3ccccc3c2cc1C(N)=O | > 100 µM | > 100 µM | > 100 µM | 90.6 µM | > 100 µM | > 100 µM |  | > 100 µM | > 100 µM |  |  |  |  |  |  |  |  |  |
| COc1cc2c(cc1OCCCC(=O)Nc1cc(C(=O)Nc3cc(C(=O)Nc4cc(C(=O)NCCCN(C)C)n(C)n4)n(C)n3)n(C)n1)N=CC1CCCN1C2=O (stereo not given) | 38.4 µM |  | > 100 µM | 93.5 µM | > 100 µM | 89.3 µM | > 100 µM | 47.4 µM | > 100 µM | > 100 µM |  |  |  |  |  |  |  |  |
| CCOC(=O)c1c(CN2CCNCC2)nc2ccccc2c1-c1ccccc1 | 30.4 µM |  | 31.8 µM | 3.63 µM | 32.5 µM | 27.8 µM | 29.3 µM | 28.5 µM | 30.1 µM | 28.1 µM |  |  |  |  |  |  |  |  |
| COC(=O)C1CCC(=O)N1C(=O)Cc1ccc(OC)cc1 (stereo not given) | > 100 µM |  | > 100 µM |  |  | > 100 µM | > 100 µM | > 100 µM | > 100 µM |  |  |  |  |  |  |  |  |  |
| Clc1ccc(Cc2nc3ccccc3nc2-c2cccc(Br)c2)cc1 | 3.44 µM |  | 5.76 µM | 3.36 µM | 3.81 µM | 44.9 µM | 28.9 µM | 27.5 µM | 31.2 µM | 11.3 µM |  |  |  |  |  |  |  |  |
| CC[N+]1(C)CCC(O)(/C=C/c2ccc(OC)cc2)C(C(=O)/C=C/c2ccc(OC)cc2)C1 (stereo not given) | 23.2 µM |  | 53 µM | 46.4 µM | 1.04 µM | > 59.7 µM | > 71.1 µM | 31.9 µM | 36.7 µM | > 42.6 µM |  |  |  |  |  |  |  |  |
| CC(=O)O[C@@H]1C[C@@]23C[C@@]24CC[C@H](OC2OCC(O)C(O)C2O)C(C)(C)[C@@H]4CC=C3[C@]2(C)C[C@@H]3OC4(C[C@@H](C)[C@@H]3[C@@]12C)OC(O)[C@@]1(C)O[C@@H]41 (stereo not given in full) | > 100 µM |  | 34.5 µM | 40.5 µM | 47.1 µM | > 100 µM | > 100 µM | 42.7 µM | 62.8 µM | > 100 µM |  |  |  |  |  |  |  |  |
| Clc1ccc(N2N=C(c3cccc(Nc4ccncc4)c3)CC2c2ccc3c(c2)OCO3)cc1 (stereo not given) | 3.13 µM | 4.76 µM | 3.07 µM | 3.2 µM |  | 3.32 µM | 13.3 µM | 3.17 µM | 24.1 µM |  | 1.63 µM | 1.79 µM | 4.31 µM | 1.65 µM | 2 µM | 1.63 µM | 2.9 µM | 1.76 µM |
| CC(C)=CCC/C(C)=C/CC/C(C)=C/Cc1c(O)c2ccccc2oc1=O | > 100 µM | > 100 µM | > 100 µM | > 100 µM | > 100 µM | > 100 µM | > 100 µM |  | > 100 µM |  |  |  |  |  |  |  |  |  |

— PubChem BioAssay (NCI)
